Values quoted from earlier work, collected in patent US20210401707A1, “AZOXYSTROBIN IN A SULFATE FREE PERSONAL CARE COMPOSITION” (The Procter & Gamble Company, priority 2020, published 2021).

In the case of `CO/C=C(/C(=O)OC)c1ccccc1Oc1cc(Oc2ccccc2C#N)ncn1` [Azoxystrobin], the solubility in water is given as “low solubility in water”.
